Measured values from the supplement of paper PMC11061612.

How the values were obtained:
KP-N-YN (Neuroblastoma) = test: combination Emax (second highest fraction inhibited in the dose matrix, 72 h); higher = more inhibition; extreme values may be limits of the assay
Procedure, shortened: (§1)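 Cell lines grown in DMEM/F12 or RPMI with 10% FBS were plated in 1536-well plates and held 24 hours at 37°C, 5% CO2 before 72 hours of exposure to two-drug dose matrices, with DMSO typically at 0.2%. CellTiter-Glo 2.0 luminescence gave viability, which was converted to inhibition. Vehicle wells were set to 0 and blank wells to 1. Combination Emax is the second-highest inhibition in the matrix, and Bliss excess is the observed combination effect minus the expected EA + EB − EA·EB, where EA and EB are the single-agent effects.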

[1] = test system: NCI-H1651 (Lung Adenocarcinoma); test: as above
Procedure, shortened: as §1

[2] = test system: JIMT-1 (Breast Carcinoma); test: as above
Procedure, shortened: as §1

EW-16 (Ewing's Sarcoma) = test: as above
Procedure, shortened: as §1

[3] = test system: Jurkat (T-Lymphoblastic Leukemia); test: as above
Procedure, shortened: as §1

769-P (Kidney Carcinoma) = test: as above
Procedure, shortened: as §1

IM-9 (Non-Cancerous) = test: as above
Procedure, shortened: as §1

[4] = test system: 22RV1 (Prostate Carcinoma); test: as above
Procedure, shortened: as §1

[5] = test system: TE-10 (Esophageal Squamous Cell Carcinoma); test: as above
Procedure, shortened: as §1

COLO-792 (Melanoma) = test: as above
Procedure, shortened: as §1

WM1552C (Melanoma) = test: as above
Procedure, shortened: as §1

[6] = test system: TE-10 (Esophageal Squamous Cell Carcinoma); test: Bliss excess, mean over the matrix (fraction); higher = more synergy
Procedure, shortened: as §1
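Throughout, for Bliss excess, mean over the matrix: after 72 h of two-drug dosing.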

| Structure (SMILES) | combination Emax (KP-N-YN (Neuroblastoma)) | combination Emax [1] | combination Emax [2] | combination Emax (EW-16 (Ewing's Sarcoma)) | combination Emax [3] | combination Emax (769-P (Kidney Carcinoma)) | combination Emax (IM-9 (Non-Cancerous)) | combination Emax [4] | combination Emax [5] | combination Emax (COLO-792 (Melanoma)) | combination Emax (WM1552C (Melanoma)) | Bliss excess [6] |
| --- | --- | --- | --- | --- | --- | --- | --- | --- | --- | --- | --- | --- |
| COc1cccc(OCCCN)c1-c1cc(Nc2cnc(C#N)cn2)n[nH]1 [Prexasertib] + O=C(c1cc(Cc2n[nH]c(=O)c3ccccc23)ccc1F)N1CCN(C(=O)C2CC2)CC1 [Olaparib] (first compound max 1 µM, 7x7, partner max 10 µM) | 0.845 | 0.797 | 0.788 | 0.793 | 0.994 | 0.751 | 1 | 0.516 | 0.892 | 0.322 | 0.711 | -0.105 |
| CCc1c2c(nc3ccc(O)cc13)-c1cc3c(c(=O)n1C2)COC(=O)[C@]3(O)CC [SN-38] + CN(C)CCCOc1ccc(-c2ccc3ncc4c(c3c2)n(C2CCOCC2)c(=O)n4C)cn1 [AZD0156] (first compound max 0.3 µM, 7x7, partner max 1 µM) | 0.806 | 0.852 | 0.266 | 0.978 | 0.999 | 0.716 | 1 | 0.683 | 0.725 | 0.361 | 0.59 | 0.0444 |
| CC(=O)Nc1cccc(-n2c(=O)n(C3CC3)c(=O)c3c(Nc4ccc(I)cc4F)n(C)c(=O)c(C)c32)c1 [Trametinib] + Cc1nc(-c2cn3c(n2)-c2ccc(-c4cnn(C(C)(C)C(N)=O)c4)cc2OCC3)n(C(C)C)n1 [Taselisib] (first compound max 1 µM, 7x7, partner max 10 µM) | 0.528 | 0.285 | 0.631 | 0.604 | 0.692 | 0.681 | 0.941 | 0.704 | 0.965 | 1 | 0.908 | 0.127 |
| CC1(C)CCC(CN2CCN(c3ccc(C(=O)NS(=O)(=O)c4ccc(NCC5CCOCC5)c([N+](=O)[O-])c4)c(Oc4cnc5[nH]ccc5c4)c3)CC2)=C(c2ccc(Cl)cc2)C1 [Venetoclax] + C1CN(CCC1(C(=O)N[C@@H](CCO)C2=CC=C(C=C2)Cl)N)C3=NC=NC4=C3C=CN4 [Capivasertib] (first compound max 1 µM, 7x7, partner max 3 µM) | 0.573 | 0.159 | 0.188 | 0.236 | 0.639 | 0.241 | 0.632 | 0.484 | 0.506 | 0.381 | 0.469 | -0.04 |
| CC1(C)CCC(CN2CCN(c3ccc(C(=O)NS(=O)(=O)c4ccc(NCC5CCOCC5)c([N+](=O)[O-])c4)c(Oc4cnc5[nH]ccc5c4)c3)CC2)=C(c2ccc(Cl)cc2)C1 [Venetoclax] + C=CCn1c(=O)c2cnc(Nc3ccc(N4CCN(C)CC4)cc3)nc2n1-c1cccc(C(C)(C)O)n1 [AZD1775] (first compound max 1 µM, partner max 1 µM) | 0.981 | 0.589 | 0.573 | 0.526 | 0.907 | 0.744 | 0.992 | 0.513 | 0.856 | 0.399 | 0.785 | 0.0301 |
| CC1(C)CCC(CN2CCN(c3ccc(C(=O)NS(=O)(=O)c4ccc(NCC5CCOCC5)c([N+](=O)[O-])c4)c(Oc4cnc5[nH]ccc5c4)c3)CC2)=C(c2ccc(Cl)cc2)C1 [Venetoclax] + CCN(CCO)CCCOc1ccc2c(Nc3cc(CC(=O)Nc4cccc(F)c4)[nH]n3)ncnc2c1 [AZD2811] (first compound max 1 µM, 7x7, partner max 1 µM) | 0.913 | 0.233 | 0.284 | 0.714 | 0.2 | 0.204 | 0.976 | 0.232 | 0.59 | 0.446 | 0.464 | -0.0502 |
| CC1(C)CCC(CN2CCN(c3ccc(C(=O)NS(=O)(=O)c4ccc(NCC5CCOCC5)c([N+](=O)[O-])c4)c(Oc4cnc5[nH]ccc5c4)c3)CC2)=C(c2ccc(Cl)cc2)C1 [Venetoclax] + CN(C)CCCOc1ccc(-c2ccc3ncc4c(c3c2)n(C2CCOCC2)c(=O)n4C)cn1 [AZD0156] (first compound max 1 µM, 7x7, partner max 1 µM) | 0.528 | 0.194 | 0.167 | 0.19 | 0.161 | 0.256 | 0.812 | 0.423 | 0.674 | 0.245 | 0.562 | 0.0071 |
| CC1(C)CCC(CN2CCN(c3ccc(C(=O)NS(=O)(=O)c4ccc(NCC5CCOCC5)c([N+](=O)[O-])c4)c(Oc4cnc5[nH]ccc5c4)c3)CC2)=C(c2ccc(Cl)cc2)C1 [Venetoclax] + COc1cc(Nc2ncc3c(n2)-c2ccc(Cl)cc2C(c2c(F)cccc2OC)=NC3)ccc1C(=O)O [Alisertib] (first compound max 1 µM, 7x7, partner max 10 µM) | 0.827 | 0.269 | 0.268 | 0.726 | 0.741 | 0.303 | 1 | 0.329 | 0.639 | 0.405 | 0.508 | -0.0401 |
| CC1(C)CCC(CN2CCN(c3ccc(C(=O)NS(=O)(=O)c4ccc(NCC5CCOCC5)c([N+](=O)[O-])c4)c(Oc4cnc5[nH]ccc5c4)c3)CC2)=C(c2ccc(Cl)cc2)C1 [Venetoclax] + C[C@@H]1COCCN1C2=NC(=NC(=C2)C3(CC3)[S@](=N)(=O)C)C4=C5C=CNC5=NC=C4 [AZD6738] (first compound max 1 µM, 7x7, partner max 10 µM) | 0.999 | 0.652 | 0.722 | 0.792 | 0.921 | 0.815 | 0.995 | 0.599 | 0.827 | 0.316 | 0.617 | -0.0361 |
| CC1(C)CCC(CN2CCN(c3ccc(C(=O)NS(=O)(=O)c4ccc(NCC5CCOCC5)c([N+](=O)[O-])c4)c(Oc4cnc5[nH]ccc5c4)c3)CC2)=C(c2ccc(Cl)cc2)C1 [Venetoclax] + C[C@@H](Nc1cc(F)cc(F)c1)c1cc(C(=O)N(C)C)cc2c(=O)cc(N3CCOCC3)oc12 [AZD8186] (first compound max 1 µM, 7x7, partner max 3 µM) | 0.569 | 0.128 | 0.087 | 0.17 | 0.271 | 0.297 | 0.573 | 0.322 | 0.373 | 0.328 | 0.365 | -0.0428 |
| CC1(C)CCC(CN2CCN(c3ccc(C(=O)NS(=O)(=O)c4ccc(NCC5CCOCC5)c([N+](=O)[O-])c4)c(Oc4cnc5[nH]ccc5c4)c3)CC2)=C(c2ccc(Cl)cc2)C1 [Venetoclax] + Cc1cc2ncnn2cc1Nc1ncc2c(n1)n(C1CCOCC1)c(=O)n2C [AZD7648] (first compound max 1 µM, 7x7, partner max 10 µM) | 0.542 | 0.191 | 0.242 | 0.193 | 0.303 | 0.171 | 0.655 | 0.456 | 0.477 | 0.411 | 0.444 | -0.0068 |
| CC1(C)CCC(CN2CCN(c3ccc(C(=O)NS(=O)(=O)c4ccc(NCC5CCOCC5)c([N+](=O)[O-])c4)c(Oc4cnc5[nH]ccc5c4)c3)CC2)=C(c2ccc(Cl)cc2)C1 [Venetoclax] + Cn1cnc2c(F)c(Nc3ccc(Br)cc3Cl)c(C(=O)NOCCO)cc21 [Selumetinib] (first compound max 1 µM, 7x7, partner max 3 µM) | 0.632 | 0.0964 | 0.14 | 0.127 | 0.277 | 0.292 | 0.901 | 0.368 | 0.415 | 0.505 | 0.488 | -0.0404 |
